# Measurements: US11136345B2, “Large scale preparation of pseudo-trisaccharide aminoglycosides and of intermediates thereof” (Eloxx Pharmaceuticals Ltd., priority 2017, dated 2021)
# Tested on: Rett Syndrome mutation R270X
# Assay: Read-through activity in cell-free assay (firefly/renilla luciferase reporter, in vitro transcription/translation)
# Format: biochemical, rabbit
# Settings: cell-free dose-response, concentration range 0-12 μM; firefly/renilla expression ratio normalized to WT and non-treated control (FIGS. 6A-B)
# Procedure: The plasmids were transcribed in vitro and translated using rabbit reticulocytes (TNT mix) and then tested for the expression levels of the firefly and renilla luciferases. WT plasmids expressed both firefly and renilla luciferases while mutant plasmids expressed only the renilla luciferase due to the stop codon found in the inserted sequence. The read-through assays were conducted for the tested compounds and the controls by adding the compounds to the in vitro transcription/translation reaction mixture. In case the compounds exerted suppression of the premature nonsense/stop codon mutation, the firefly luciferase was expressed and a fold-change in its expression was observed.
# Read-through activity of Rett Syndrome mutation R270X was tested using ELX-02 that was manufactured in Example 1 and 2, and the mutation suppression was calculated based on firefly/renilla expression ratio values, and normalized with respect to the expression level of the WT and the control sample (no tested compound).
# FIGS. 6A-B present the results of Rett Syndrome mutation R270X nonsense mutation suppression dose-response cell-free assays conducted for ELX-02 according to embodiments of the present invention, at a concentration rage of 0-12 μM.
smiles,measurement,value
C[C@H](N)[C@H]1O[C@@H](OC2C(O)[C@H](N)CC(N)[C@H]2O[C@H]2OC([C@@H](C)O)[C@@H](O)C(O)C2N)C(O)C1O (stereo partly shown) [ELX-02],"read-through of the Rett Syndrome mutation, R270X",dose-dependent increase
